Source: BindingDB's records for doi:10.1111/cbdd.12826 (Universidade De Lisboa, 2016)
Structures can show the parent of a compound that is named as a salt.

The molecules below were run against DNA-(apurinic or apyrimidinic site) endonuclease (Homo sapiens, UniProt P27695) (assay: Fluorescence-Based APE1 Endonuclease Activity Assay). Conditions: pH 7.5.
Procedure: In this assay, the complementary single-stranded oligonucleotides at […] were mixed at a 1:1 ratio and annealed in assay buffer (50 mm Tris pH 7.5, 25 mm NaCl, 2 mm MgCl2, 1 mm DTT, 0.01% Tween-20) at 95 °C for 5 min to generatethe double-stranded substrate of APE1.[A. Simeonov, A. Kulkarni, D. Dorjsuren, A. Jadhav, M. Shen, D. R. McNeill, C. P. Austin, D. M. Wilson 3rd, PLoS ONE 2009, 4, p. e5740.] After the annealing, the reaction mixture was allowed to cool to room temperature. The assay was carried out in 96-well black plates with flat bottom (Costar, Corning Inc., NY, USA) at a finalreaction volume of 100 μL. The reaction mixtures containing 2.5 U of human recombinant APE1 (6 μL) (New England Biolabs, Ipswich, MA, USA) were incubated in the assay buffer abovementioned, in the absence or presence of the putative APE1 inhibitors (5 μL), at room temperature for 15 min. The reaction was initiated by the addition of double-stranded substrate (6 μL) to obtain the final concentration of 250 nm. DMSO was maintained at a concentration of 0.5% (v/v) in all assays (negative control). Fluorescence readings were acquired at 1-min intervals over an incubation period of 30 min at 37 °C using a SpectraMax Gemini EM microplate plate reader (Molecular Devices, Berkshire, UK) in the kinetic mode at excitation wavelength 550 nm, emission wavelength 584 nm, and cutoff at 570 nm.

Sequence of DNA-(apurinic or apyrimidinic site) endonuclease (P27695 whole entry): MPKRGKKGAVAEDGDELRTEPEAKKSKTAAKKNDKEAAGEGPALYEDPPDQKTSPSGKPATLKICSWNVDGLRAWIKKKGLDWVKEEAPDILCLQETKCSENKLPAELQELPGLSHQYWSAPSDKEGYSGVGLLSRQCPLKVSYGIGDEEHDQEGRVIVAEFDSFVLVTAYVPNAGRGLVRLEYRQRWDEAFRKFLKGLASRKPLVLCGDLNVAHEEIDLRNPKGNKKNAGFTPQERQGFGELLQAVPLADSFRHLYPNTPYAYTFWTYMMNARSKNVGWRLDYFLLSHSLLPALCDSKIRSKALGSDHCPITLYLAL

**Q.** Which IC50 does the source give for `CC(=O)Nc1ccc(/C=C/c2ccc(N=C=S)c(S(=O)(=O)O)c2)c(S(=O)(=O)O)c1` [(5-(acetylamino)-2-[2-(4-isothiocyanato-3-sulfophenyl)ethenyl]benzenesulfonic acid disodium salt (Compound 22)] here?
**A.** 0.25 µM

**Q.** With `Nc1ccc2cc(S(=O)(=O)O)cc(O)c2c1/N=N/c1ccc([N+](=O)[O-])cc1S(=O)(=O)O` [6-amino-4-hydroxy-5-[(4-nitro-2-sulfophenyl)azo]-2-naphtalenesulfonic acid disodium salt (Compound 37)] as the molecule, how does the IC50 read?
**A.** 7.76 µM

**Q.** `Nc1ccc(/N=N/c2c(N)ccc3cc(S(=O)(=O)O)cc(O)c23)c(S(=O)(=O)O)c1` [6-amino-5-[(4-amino-2-sulfophenyl)azo]-4-hydroxy-2-naphtalenesulfonic acid disodium salt (Compound 41)] was tested. Which IC50 did it give?
**A.** 8.85 µM
